BigSolDB 2.1

CC(=O)c1ccc(O)cc1O
solubility (mole fraction)
Conditions	in benzene	in ethanol	in ethyl acetate	in isobutanol	in isopropanol	in methanol	in methyl acetate	in n-butanol	in n-propanol	in n-propyl acetate
293.15 K	0.00045	0.118	0.118	0.0782	0.13	0.103	0.114	0.104	0.106	0.11
298.15 K	0.00055	0.131	0.129	0.091	0.144	0.117	0.126	0.118	0.118	0.12
303.15 K	0.00067	0.146	0.139	0.107	0.162	0.132	0.141	0.133	0.135	0.129
308.15 K	0.00082	0.162	0.152	0.122	0.178	0.148	0.155	0.153	0.151	0.143
313.15 K	0.00102	0.177	0.166	0.139	0.194	0.163	0.168	0.172	0.167	0.155
318.15 K	0.00125	0.195	0.18	0.156	0.211	0.183	0.182	0.191	0.18	0.171
323.15 K	0.0015	0.216	0.199	0.18	0.231	0.203	0.201	0.214	0.195	0.189
328.15 K	0.00178	0.235	0.216	0.199	0.25	0.228	0.212	0.233	0.216	0.205
333.15 K	0.00207	0.257	0.236	0.221	0.271	0.253	–	0.253	0.233	0.222
